IC50 data for two compounds are collected here from ChEMBL document CHEMBL4831552, “Novel Substituted Piperazine Amide Compounds as Indoleamine-2,3-dioxygenase (IDO) Inhibitors” (ACS Med Chem Lett, 2021).

The assay addresses Indoleamine 2,3-dioxygenase 1 (Homo sapiens, UniProt P14902). Nature of the assay: Inhibition of IDO1 in IFN-gamma stimulated human HeLa cells incubated for 48 hrs by fluorescence microplate reader assay.

Some results are limits rather than exact numbers.

Sequence of Indoleamine 2,3-dioxygenase 1 (P14902 whole entry): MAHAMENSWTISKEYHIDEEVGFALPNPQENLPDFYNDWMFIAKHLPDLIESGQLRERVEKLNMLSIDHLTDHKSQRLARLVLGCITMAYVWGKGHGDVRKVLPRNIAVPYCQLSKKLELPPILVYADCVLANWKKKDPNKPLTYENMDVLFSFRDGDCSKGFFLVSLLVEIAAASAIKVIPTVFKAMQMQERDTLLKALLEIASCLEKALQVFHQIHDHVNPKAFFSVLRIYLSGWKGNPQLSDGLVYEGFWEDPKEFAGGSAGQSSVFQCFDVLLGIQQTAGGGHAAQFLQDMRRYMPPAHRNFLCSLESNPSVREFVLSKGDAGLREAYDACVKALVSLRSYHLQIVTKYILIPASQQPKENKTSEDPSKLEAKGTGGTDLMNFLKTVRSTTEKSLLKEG

As to `CC(=O)NC1CCN(C(=O)c2nn(CC(=O)N3CCN(c4cccc(C)c4Cl)CC3)c3c2C2CCCCC2C3)CC1` (configuration not stated), the concentration for half-maximal inhibition (IC50) (as a rule, the concentration needed to halve the response being measured) is 0.59 nM.

As to `Cc1cccc(N2CCN(C(=O)Cn3nc(C(=O)N4CCC5(CO)CC4C5)c4c3C[C@H]3C[C@@H]43)CC2)c1C`, the 50% inhibitory concentration (IC50) is less than 0.51 nM.
